Converted amounts (≈) assume the structure as drawn. Like-named read-outs stand apart in the source and are kept apart here.

In general, inhibition refers to the relative decrease from the control value, in per cent.

In data set [1] the test system is MCF-7 human mammary adenocarcinoma. The data set is described as follows: In vitro inhibition rate to tumor cells (MTT), MCF-7. It counts as cell-based. The settings on record: Homo sapiens, MCF7, 50 μg/ml, read-out: inhibition rate, Results (%) MCF-7.
Data set [2] deals with U-937 human histocytic lymphoma. The data set is described as follows: In vitro inhibition rate to tumor cells (MTT), U-937. The class given is cell-based. The settings on record: Homo sapiens, U-937, 50 μg/ml, read-out: inhibition rate, Results (%) U-937.
In data set [3] the test system is HL-60 human promyelocytic leukemia. The data set is described as follows: In vitro inhibition rate to tumor cells (MTT), HL-60. The settings on record: Homo sapiens, HL-60, 50 μg/ml, read-out: inhibition rate, Results (%) HL-60. It counts as cell-based.
Data set [4] has as its system SMMC-7721 human hepatic carcinoma. The data set is described as follows: In vitro inhibition rate to tumor cells (MTT), SMMC-7721. The class given is cell-based. The conditions noted are these: Homo sapiens, SMMC-7721, 50 μg/ml, read-out: inhibition rate, Results (%) SMMC-7721.
Data set [5] deals with Hela human cervical carcinoma. In words: In vitro inhibition rate to tumor cells (MTT), Hela. It counts as cell-based. The settings on record: Homo sapiens, HeLa, 50 μg/ml, read-out: inhibition rate, Results (%) Hela.
Data set [6] can be described thus: Solubility in water (observation). It counts as physicochemical.
The subject of data set [7] is LLC mouse Lewis lung carcinoma. The data set is described as follows: In vitro inhibition rate to tumor cells (MTT), LLC. The class given is cell-based. The settings on record: Mus musculus, Lewis lung carcinoma, 50 μg/ml.
For data set [8], the system named is A-549 human lung adenocarcinoma. The data set is described as follows: In vitro inhibition rate to tumor cells (MTT), A-549. It counts as cell-based. The settings on record: Homo sapiens, A549, 50 μg/ml, read-out: inhibition rate, Results (%) A-549.
The subject of data set [9] is Bel-7402 human hepatic carcinoma. In words: In vitro inhibition rate to tumor cells (MTT), Bel-7402. It counts as cell-based. The settings on record: Homo sapiens, Bel-7402, 50 μg/ml, read-out: inhibition rate, Results (%) Bel-7402.
Data set [10] concerns influenza B virus (Jifang 97-13). In words: Screening for the activity against influenza B virus (CPE in MDCK cells).
For the next data set, the system named is MDCK (dog kidney) cells. In words: Toxicity TC50 of the samples in MDCK cells (influenza screening). The conditions noted are these: concentration of 50% toxicity.
Data set [11] concerns influenza A virus (Jifang 90-15). The data set is described as follows: microbe, parasite or virus in culture. It counts as cell-based.
In data set [12] the test system is mouse grafted liver cancer H22. In words: Activity against mouse grafted liver cancer H22. The class given is in vivo, Kunming mice. The conditions noted are these: for Tumor weight: X ± SD, n = 10. The protocol:
(§1) The experiments were performed according to “Guideline for New Drugs (Western medicines) in Pre-clinical Stages” issued by Bureau of Drug Policy & Administration of the People's Republic of China, and the relevant methods in “Methodology of Pharmaceutical Experiments”, Xu Shuyun et al. ed. 120 male Kunming mice weighting […] were allowed to grow 3 days. No abnormality was observed. The mice were routinely inoculated in oxter with mouse sarcoma S-180, and weighted 4 hrs. after inoculation. The mice were randomly divided into 12 groups, 10 mice/group. Group 1 was given 0.3 ml of physiological saline as negative control; Group 2 was given 5-FU as positive control, 0.6 mg/mouse; Group 3 was given hydroxycamptothecine as positive control, 0.02 mg/mouse. Groups 4, 5 and 6 were injected with 10% Compound 6, 0.4 ml/mouse, 0.2 ml/mouse, and 0.1 ml/mouse, respectively. Groups 7, 8 and 9 were injected with 10% Compound 8, 0.4 ml/mouse, 0.2 ml/mouse, and 0.1 ml/mouse, respectively. Groups 10, 11, and 12 were injected with 10% Compound 20, 0.4 ml/mouse, 0.2 ml/mouse, and 0.1 ml/mouse, respectively. The tested compounds were administered on the next day after inoculation, once a day on alternate days, 6 doses totally administered. On the next day after the end dose, the mice were weighed and sacrificed. After the tumor was excised, body weight and tumor weight were recorded. The tumor inhibition rate was calculated based on the following formula: [(average tumor weight of the control groups−average tumor weight of the experimental groups)/average tumor weight of the control groups]×100%. The data was processed statistically. The above experiments were repeated three times.
The experiments were identical with the experiments for activity against mouse grafted sarcoma S-180, except that the cell line inoculated was liver cancer H22. The experiments were repeated three times.

Data set [13] has as its system HL-60 human promyelocytic leukemia. In words: In vitro anti-tumor IC50 (MTT), HL-60. The class given is cell-based. The settings on record: Table 4. On the procedure:
(§2) (1) Single cell suspension was seeded into 96-well plates (the cells was diluted in the PRMI-1640 minimum medium to 3×10^4 cells/ml, […] diluted cells/well). […] The experiments were performed in quadruplicate.
(§3) (2) The medium was removed. Solutions of the anti-tumor agents (50 compounds) were prepared in a freshly prepared medium at serial concentrations. […] of the solution was added into each well. Incubation was continued for 48 hours.
(§4) (3) 20 ug of 2 mg/ml MTT was added into each well, and incubated for 4 hours.
(§5) (4) The medium was removed from the well. The microplates were swiftly turned down to throw-off the medium. […] of DMSO was added into each well, and vortexed at room temperature for 10 minutes.
(§6) (5) OD value (λ=570 nm) was measured with an Enzyme-Linked Detector.
(§7) (6) The graph of cell vitality was plotted, and IC50 was calculated.

Data set [14] concerns Hela human cervical carcinoma. In words: In vitro anti-tumor IC50 (MTT), Hela. The class given is cell-based. The settings on record: Table 4. The protocol:
as §2, §3, §4, §5, §6, §7

For data set [15], the system named is mouse grafted sarcoma S-180. In words: Activity against mouse grafted sarcoma S-180. The class given is in vivo, Kunming mice. The conditions noted are these: for Inhibition rate (%) / Tumor weight: 30 mg/kg i.v., 6 doses; for Tumor weight: X ± SD, n = 10. On the procedure:
(1) Experimental animals: Kunming mice weighting 18-22 g;
(2) 100 mg/ml solutions of the 3 compounds were prepared, respectively, in water for injection (1% surface surfactant was added into the solution of Compound 6). 5-FU and camptothecine, 30 mg/kg and 1 mg/kg, respectively, were used as positive controls;
3. Route of Administration: Intravenous Injection.
as §1

The test system of data set [16] is MCF-7 human mammary adenocarcinoma. The data set is described as follows: In vitro anti-tumor IC50 (MTT), MCF-7. The class given is cell-based. The settings on record: Table 4. The protocol: as §2, §3, §4, §5, §6, §7
The test system of data set [17] is A-549 human lung adenocarcinoma. In words: In vitro anti-tumor IC50 (MTT), A-549. The class given is cell-based. The conditions noted are these: Table 4. The protocol:
as §2, §3, §4, §5, §6, §7

In the next data set the test system is mouse lung cancer Lewis. In words: Activity against mouse grafted lung cancer Lewis. The class given is in vivo, Kunming mice. The conditions noted are these: Lewis, 30 mg/kg; for Tumor weight: X ± SD, n = 10. On the procedure:
as §1
(§8) The experiments were identical with the experiments for activity against mouse grafted sarcoma S-180, except the following:
(1) the tumor cell line inoculated was mouse lung cancer Lewis;
(2) Compound 6, Compound 8 and Compound 21 were not tested for their activity;
(3) the mice were divided into six groups.

The subject of data set [18] is Bel-7402 human hepatic carcinoma. In words: In vitro anti-tumor IC50 (MTT), Bel-7402. The class given is cell-based. The settings on record: Table 4. On the procedure:
as §2, §3, §4, §5, §6, §7

Data set [19] relates to mouse grafted uterine cervix cancer U14. In words: Activity against mouse grafted uterine cervix cancer U14. The class given is in vivo, Kunming mice. The settings on record: 30 mg/kg; for Tumor weight: X ± SD, n = 10. The protocol: as §1, §8
(1) the tumor cell line inoculated was mouse grafted uterine cervix cancer U14;
(2) all the mice were female.

Setting [20] is: H22, first experiment, 30 mg/kg i.v., 6 doses.
Setting [21] is: H22, second experiment, 30 mg/kg.
[22] abbreviates: H22, third experiment, 30 mg/kg.

As for `CC(C)C1CC23OC1(O)CC(O)(CO)C2CCC3C` (centres unmarked) [Compound 32, Curcumol dihydroxy compound], the inhibition at 50 µg/mL in data set [1] (Table 1) was 65.1%; in [1] (Table 2 (repeated screening)), 65%; in data set [2] (Table 1), 65.3%; in data set [2] (Table 2 (repeated screening)), 67.2%; in data set [3] (Table 1) it was 14%; in data set [3] (Table 2 (repeated screening)), 13.4%. In addition, the inhibition at 50 µg/mL in [4] (Table 1) stood at 80%; in data set [4] (Table 2 (repeated screening)) it was 82.6%; in data set [5] (Table 1), 84.3%; in [5] (Table 2 (repeated screening)) it was 80.1%; in [7] (Table 1) it was 7.27%; in [7] (Table 2 (repeated screening)) it was 7.05%. Further, the inhibition at 50 µg/mL in data set [8] (Table 1) is -12.5%; in [8] (Table 2 (repeated screening)), -12.5%; in [9] (Table 1) it was 4.23%; in [9] (Table 2 (repeated screening)), 4.23%. Moreover, the “solubility in water (in words)” value in [6] is on record as “very big”.
As for `NC(=O)c1ncn([C@@H]2O[C@H](CO)[C@@H](O)[C@H]2O)n1` [RBV], the “IC50, influenza B virus” value in data set [10] (CPE in MDCK cells) is 6.17 µg/mL (≈ 25.3 µM). The “SI, influenza B virus” value in data set [10] (SI = TC50/IC50) came to 324.15. The molecule further returned a TC50 in the data set with MDCK (dog kidney) cells of more than 2000 µg/mL. In addition, the “IC50, influenza A virus” value in [11] (CPE in MDCK cells) stood at 2.06 µg/mL (≈ 8.44 µM). For the same molecule, the “SI, influenza A virus” value in data set [11] (SI = TC50/IC50) is 970.87.
Turning to `O=c1[nH]cc(F)c(=O)[nH]1` [Compound 5-FU, reference compound], the “Inhibition rate (%)” value in [12] (setting [20]) is given as 60.0%; in data set [12] (setting [21]), 60.5%; in data set [12] (setting [22]), 64.2%; in data set [15] (S-180, first experiment) it was 71.2%; in data set [15] (S-180, second experiment), 69.6%; in the data set on mouse lung cancer Lewis (first experiment), 55.0%. In addition, the “Inhibition rate (%)” value in the data set with mouse lung cancer Lewis (second experiment) amounted to 54.3%; in the data set with mouse lung cancer Lewis (third experiment), 53.7%; in data set [19] (U14, first experiment), 40.2%; in data set [19] (U14, second experiment), 42.6%; in data set [19] (U14, third experiment) it was 42.0%. The “Tumor weight” value in data set [12] (setting [20]) turned out to be 1.21 ± 0.31 g; in data set [12] (setting [21]) it was 1.19 ± 0.31 g; in [12] (setting [22]) it was 1.08 ± 0.31 g; in data set [15] (S-180, first experiment) it was 0.72 ± 0.23 g; in data set [15] (S-180, second experiment), 0.79 ± 0.33 g; with mouse lung cancer Lewis (first experiment), 1.34 ± 0.31 g. Moreover, the “Tumor weight” value amounted to 1.10 ± 0.31 g in the data set with mouse lung cancer Lewis (second experiment); 1.25 ± 0.31 g with mouse lung cancer Lewis (third experiment); 2.10 ± 0.31 g in data set [19] (U14, first experiment); 1.95 ± 0.31 g in [19] (U14, second experiment); 2.10 ± 0.31 g in data set [19] (U14, third experiment). Moreover, the “Average weight (g)-after administration” value came to 20.3 g in data set [12] (mouse, in vivo, 30 mg/kg); 22.9 g in data set [15] (mouse, in vivo, iv, 30 mg/kg); 21.0 g in data set [19] (mouse, in vivo). Also, the “Average weight(g)-after administration” value was found to be 21.3 g in data set [12] (mouse, in vivo, 30 mg/kg); 22.3 g in data set [12] (mouse, in vivo, iv, 30 mg/kg); 21.9 g in data set [15] (mouse, in vivo, iv, 30 mg/kg); 21.3 g in [19] (mouse, in vivo). In addition, the “IC50 (ug/ml) against tumor cell lines, HL-60” value in data set [13] is 0.51 µg/mL (≈ 3.92 µM). The “IC50 (ug/ml) against tumor cell lines, Hela” value in [14] worked out at 2.86 µg/mL (≈ 22 µM). For the same molecule, the “IC50 (ug/ml) against tumor cell lines, MCF” value in [16] was found to be 1.53 µg/mL (≈ 11.8 µM). Also, in [17], the “IC50 (ug/ml) against tumor cell lines, A-549” value was found to be 0.7 µg/mL (≈ 5.38 µM). In addition, in [18], the “IC50 (ug/ml) against tumor cell lines, Bel-7402” value came out at 0.54 µg/mL (≈ 4.15 µM).

For the origin of these results see patent US7700584B2 (Hangzhou Minsheng Pharmaceuticals Co., Ltd., priority 2004, dated 2010).
